US10954214B2 (Janssen Pharmaceutica NV, priority 2016, dated 2021)

How the values were obtained:
[1] = system: IL6 secretion by TMD8 ABC-DLBCL cells; assay: Human IL6 Mesoscale assay (TMD-8); format: cell-based; settings: Homo sapiens, TMD8; TMD-8 cells, 24 h
In short: (§1)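 Compounds tested from 15 μM to 58.6 nM (twofold, 9 concentrations) on 100,000 cells per well over 24 h at 37° C, without beta-mercaptoethanol. Secreted cytokine in supernatant detected by MSD electrochemiluminescence; scaling used DMSO as maximum and RN486 as full inhibition.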

TMD8 cells = assay: 4-day proliferation assay, TMD8; format: cell-based; settings: Homo sapiens, 96 h, 4 days incubation, CellTiterGLO, read-out: Anti-proliferation: TMD-8 IC50
Procedure: (§2) To assess anti-proliferative effects, MALT1 inhibitor test compounds were tested in 4-day proliferation assays using three different DLBCL cell lines.
(§3) Cells should be kept between 0.5-2.5 million cells per mL during culturing and cells should be supplemented every 2-3 days with fresh 50 μM beta-mercaptoenthanol. No beta-mercaptoethanol is used during the proliferation assay. OCI-Ly7 cells were propagated in IMDM (ThermoFisher) supplemented with 10% fetal bovine serum (HyClone), 2 mM L-glutamine (Sigma Aldrich) and 50 μg/mL Gentamycin. Cell passage numbers should not exceed 30 (for OCI-Ly3 cells with passage number lower than 10 were used).
(§4) 10,000 TMD8, 10,000 OCI-Ly3 or 2,000 OCI-Ly7 cells were seeded in 100 μL media per well and incubated for 4 days at 37° C. and 5% CO2. Cell plating numbers were chosen based on growth curves to ensure linear cell growth. After 4 days of incubation 50 μL CellTiterGLO reagent (Promega) were added to each well and luminescence was measured on the Envision after 10 min of incubation at room temperature.
(§5) LC=median of the low control values
(§6) An estimate of the slope of the plot in terms of the Hill coefficient was also obtained.

[2] = target: full-length MALT1 protein (Strep-MALT1(1-824)-His) (Homo sapiens (Human), UniProt Q9UDY8); assay: MALT1 Biochemical Protease Assay (Ac-LRSR-AMC substrate); settings: 10 nM FL MALT1, 200 μM Ac-LRSR-AMC, 4 h at RT; read-out: MALT1_Biochemical activity (Ac-LRSR-amc) IC50
In short: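 Full-length MALT1 pre-incubated with compounds (30 μM to 0.5 nM, 11 threefold steps) for 50 min at RT. After Ac-LRSR-AMC was added, the reaction ran 4 h at RT and AMC fluorescence was read. IC50 and Hill slope from curve fitting against no-enzyme and no-compound controls.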

[3] = system: IL10 secretion by TMD8 ABC-DLBCL cells; assay: Human IL10 Mesoscale assay (TMD-8); format: cell-based; settings: Homo sapiens, TMD8; TMD-8 cells, 24 h
In short: as §1

OCI-Ly3 cells = assay: 4-day proliferation assay, OCI-Ly3; format: cell-based, human; settings: Homo sapiens, 96 h, 4 days incubation, CellTiterGLO, read-out: Anti-proliferation: OCI-LY-3 IC50
Procedure: as §2, §3, §4, §5, §6

Chain of full-length MALT1 protein (Strep-MALT1(1-824)-His) (Q9UDY8 whole entry): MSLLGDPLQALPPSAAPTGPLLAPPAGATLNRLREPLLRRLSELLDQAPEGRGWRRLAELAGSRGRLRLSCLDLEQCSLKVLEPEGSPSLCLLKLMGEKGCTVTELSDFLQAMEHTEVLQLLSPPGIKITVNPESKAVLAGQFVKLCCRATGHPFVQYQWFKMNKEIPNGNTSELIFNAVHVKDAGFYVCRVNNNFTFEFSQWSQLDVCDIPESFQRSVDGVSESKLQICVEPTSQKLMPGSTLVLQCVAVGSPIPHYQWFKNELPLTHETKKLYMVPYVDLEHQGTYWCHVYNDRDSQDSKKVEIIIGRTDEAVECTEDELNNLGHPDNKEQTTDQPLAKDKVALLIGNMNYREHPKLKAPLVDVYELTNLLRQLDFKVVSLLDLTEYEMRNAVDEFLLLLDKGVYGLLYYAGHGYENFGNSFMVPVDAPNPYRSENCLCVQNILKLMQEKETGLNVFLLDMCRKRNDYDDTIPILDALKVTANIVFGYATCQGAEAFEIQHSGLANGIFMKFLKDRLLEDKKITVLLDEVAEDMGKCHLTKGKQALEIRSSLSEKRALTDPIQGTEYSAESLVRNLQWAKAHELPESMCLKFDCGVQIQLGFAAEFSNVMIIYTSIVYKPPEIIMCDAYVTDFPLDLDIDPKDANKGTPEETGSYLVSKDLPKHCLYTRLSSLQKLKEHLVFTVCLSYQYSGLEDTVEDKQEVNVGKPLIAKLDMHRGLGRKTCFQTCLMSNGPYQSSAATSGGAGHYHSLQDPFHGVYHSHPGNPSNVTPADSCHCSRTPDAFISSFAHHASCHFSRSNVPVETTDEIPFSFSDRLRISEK

SMILES | IC50 [1] [nM] | IC50 (TMD8 cells) [nM] | IC50 [2] [nM] | IC50 [3] [nM] | IC50 (OCI-Ly3 cells) [nM]
Cn1ccc(-c2ncc(NC(=O)c3cnn(-c4cccc5ncccc45)c3C(F)(F)F)cc2C#N)n1 [Cpd 89, N-(5-cyano-6-(1-methyl-1H-pyrazol-3-yl)pyridin-3-yl)-1-(quinolin-5-yl)-5-(trifluoromethyl)-1H-pyrazole-4-carboxamide] | 74 | > 20000 | 41 | 95 | 740
N#Cc1cc(NC(=O)c2cnn(-c3ccnc4ccoc34)c2C(F)(F)F)cnc1-n1nccn1 [Cpd 150, N-(5-cyano-6-(2H-1,2,3-triazol-2-yl)pyridin-3-yl)-1-(furo[3,2-b]pyridin-7-yl)-5-(trifluoromethyl)-1H-pyrazole-4-carboxamide] | 457 | > 7940 | 8 | 178 | 282
N#Cc1cc(NC(=O)c2cnn(-c3cnc(N)c4ccccc34)c2C(F)(F)F)cnc1-n1nccn1 [Cpd 156, 1-(1-aminoisoquinolin-4-yl)-N-(5-cyano-6-(2H-1,2,3-triazol-2-yl)pyridin-3-yl)-5-(trifluoromethyl)-1H-pyrazole-4-carboxamide] | 2510 | 5250 | 22 | 2340 | 776
O=C(Nc1cnc(-n2nccn2)c(Cl)c1)c1cnn(-c2nccn3nccc23)c1C(F)(F)F [Cpd 141, N-(5-chloro-6-(2H-1,2,3-triazol-2-yl)pyridin-3-yl)-1-(pyrazolo[1,5-a]pyrazin-4-yl)-5-(trifluoromethyl)-1H-pyrazole-4-carboxamide] | 51 | 6030 | 25 | 39 | 505
N#Cc1cc(NC(=O)c2cnn(-c3ccc(F)c4ccccc34)c2C(F)(F)F)cnc1-n1nccn1 [Cpd 312, N-(5-cyano-6-(2H-1,2,3-triazol-2-yl)pyridin-3-yl)-1-(4-fluoronaphthal-1-yl)-5-(trifluoromethyl)-1H-pyrazole-4-carboxamide] | 8320 | 501 | 49 | 2460 | 516
Cn1ccc(-c2ncc(NC(=O)c3cnn(-c4cncc5ccccc45)c3C(F)(F)F)cc2C#N)n1 [Cpd 78, N-(5-cyano-6-(1-methyl-1H-pyrazol-3-yl)pyridin-3-yl)-1-(isoquinolin-4-yl)-5-(trifluoromethyl)-1H-pyrazole-4-carboxamide] | 81 | 7590 | 55 | 112 | ~490
O=C(Nc1cnc(-n2nccn2)c(F)c1)c1cnn(-c2cncc3ccccc23)c1C(F)(F)F [Cpd 61, N-(5-fluoro-6-(2H-1,2,3-triazol-2-yl)pyridin-3-yl)-1-(isoquinolin-4-yl)-5-(trifluoromethyl)-1H-pyrazole-4-carboxamide] | 263 | ~14100 | 102 | 224 | 1260
N#Cc1cc(NC(=O)c2cnn(-c3cccc4ncccc34)c2C(F)(F)F)cnc1OC1CC1 [Cpd 88, N-(5-cyano-6-cyclopropoxypyridin-3-yl)-1-(quinolin-5-yl)-5-(trifluoromethyl)-1H-pyrazole-4-carboxamide] | 331 | ~12000 | 107 | 209 | 1350
Cc1cncc2c(-n3ncc(C(=O)Nc4cnc(-n5nccn5)c(Cl)c4)c3C(F)(F)F)cccc12 [Cpd 33, N-(5-Chloro-6-(2H-1,2,3-triazol-2-yl)pyridin-3-yl)-1-(4-methylisoquinolin-8-yl)-5-(trifluoromethyl)-1H-pyrazole-4-carboxamide] | 7410 | > 20000 | 1100 | 1050 | > 20000
O=C(Nc1cnc(-n2cc(CO)cn2)c(Cl)c1)c1cnn(-c2cccc3c(=O)[nH]ccc23)c1C(F)(F)F [Cpd 182, N-(5-chloro-6-(4-(hydroxymethyl)-1H-pyrazol-1-yl)pyridin-3-yl)-1-(1-oxo-1,2-dihydroisoquinolin-5-yl)-5-(trifluoromethyl)-1H-pyrazole-4-carboxamide] | 7590 | 5250 | 35 | 2510 | 3140
O=C(Nc1cnc(-n2nccn2)c(Cl)c1)c1cnn(-c2nccc3ccccc23)c1C(F)(F)F [Cpd 57, N-(5-chloro-6-(2H-1,2,3-triazol-2-yl)pyridin-3-yl)-1-(isoquinolin-1-yl)-5-(trifluoromethyl)-1H-pyrazole-4-carboxamide] | 81 | ~8910 | 43 | 85 | 220
NC(=O)c1cnn(-c2ncc(NC(=O)c3cnn(-c4cccc5ncccc45)c3C(F)(F)F)cc2Cl)n1 [Cpd 144, 2-(3-chloro-5-(1-(quinolin-5-yl)-5-(trifluoromethyl)-1H-pyrazole-4-carboxamido)pyridin-2-yl)-2H-1,2,3-triazole-4-carboxamide] | 52 | 2570 | 28 | 49 | 482
COC(=O)c1cc(NC(=O)c2cnn(-c3cncc4ccccc34)c2C(F)(F)F)cc(Cl)n1 [Cpd 74, Methyl 6-chloro-4-(1-(isoquinolin-4-yl)-5-(trifluoromethyl)-1H-pyrazole-4-carboxamido)picolinate] | 1380 | > 20000 | 372 | 1380 | 2450
Cc1cc(NC(=O)c2cnn(-c3cncc4ccccc34)c2C(F)(F)F)cc(C(F)(F)F)n1 [Cpd 73, 1-(isoquinolin-4-yl)-N-(2-methyl-6-(trifluoromethyl)pyridin-4-yl)-5-(trifluoromethyl)-1H-pyrazole-4-carboxamide] | 417 | ~11500 | 724 | 339 | 1950
O=C(Nc1cnc(-n2ncc(CO)n2)c(Cl)c1)c1cnn(-c2cccc3ncccc23)c1C(F)(F)F [Cpd 136, N-(5-chloro-6-(4-(hydroxymethyl)-2H-1,2,3-triazol-2-yl)pyridin-3-yl)-1-(quinolin-5-yl)-5-(trifluoromethyl)-1H-pyrazole-4-carboxamide] | 45 | 2290 | 21 | 31 | 414
COC(=O)c1cnn(-c2ncc(NC(=O)c3cnn(-c4cccc5ncccc45)c3C(F)(F)F)cc2Cl)n1 [Cpd 108, Methyl 2-(3-chloro-5-(1-(quinolin-5-yl)-5-(trifluoromethyl)-1H-pyrazole-4-carboxamido)pyridin-2-yl)-2H-1,2,3-triazole-4-carboxylate] | > 302 | 1660 | 23 | > 302 | 1120
N#Cc1cc(NC(=O)c2cnn(-c3ccc(F)c4nccn34)c2C(F)(F)F)cnc1-n1nccn1 [Cpd 204, N-(5-cyano-6-(2H-1,2,3-triazol-2-yl)pyridin-3-yl)-1-(8-fluoroimidazo[1,2-a]pyridin-5-yl)-5-(trifluoromethyl)-1H-pyrazole-4-carboxamide] | 525 | 5890 | 35 | 1150 | 1720
Cn1nc(-c2ncc(NC(=O)c3cnn(-c4cccc5c(=O)[nH]ccc45)c3C(F)(F)F)cc2Cl)cc1N [Cpd 183, N-(6-(5-amino-1-methyl-1H-pyrazol-3-yl)-5-chloropyridin-3-yl)-1-(1-oxo-1,2-dihydroisoquinolin-5-yl)-5-(trifluoromethyl)-1H-pyrazole-4-carboxamide] | 6610 | > 20000 | 35 | 2140 | 3570
N#Cc1cc(NC(=O)c2cnn(-c3nccc4sccc34)c2C(F)(F)F)cnc1-n1nccn1 [Cpd 90, N-(5-cyano-6-(2H-1,2,3-triazol-2-yl)pyridin-3-yl)-1-(thieno[3,2-c]pyridin-4-yl)-5-(trifluoromethyl)-1H-pyrazole-4-carboxamide] | 98 | ~3890 | 21 | 135 | 520
[2H]c1ccc2c(-n3ncc(C(=O)Nc4cnc(-n5nccn5)c(Cl)c4)c3C(F)(F)F)cccc2n1 [Cpd 131, N-(5-chloro-6-(2H-1,2,3-triazol-2-yl)pyridin-3-yl)-1-(2-Dquinolin-5-yl)-5-(trifluoromethyl)-1H-pyrazole-4-carboxamide] | 56 | 2630 | 17 | 21 | 265
